What was measured:
[1] = Drug-release assay of nanoparticle-conjugated linker-payloads under cleavage conditions (Cat-B, redox-responsive or pH-sensitive cleaving study), RP-HPLC; assay type: in vitro ADME; conditions: linker-payload conjugated to DBCO-functionalized silica nanoparticle, 37° C., 24 hours
Summary of the method: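 Azide linker-drugs were click-conjugated to DBCO-functionalized ultrasmall silica nanoparticles and incubated under cleavage conditions, e.g., Cat-B in 25 mM MES, 5 mM DTT, pH 5.0. Released versus non-released drug was quantified by C18 RP-HPLC peak area. Gradients were 0.01% TFA water/acetonitrile for protease/redox linkers and water/acetonitrile for pH-sensitive linkers.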

SKOV-3 cell line = assay: In vitro cell viability assay of FA-CDCs (CellTiter-Glo2.0); assay type: cell-based; conditions: FA ligands per particle 12-22; linker-drug conjugates per particle 17-25; read-out: IC50 inSKOV-3 cell line (+++)
Procedure: (§1) The in vitro cytotoxicity of the NDCs disclosed herein were tested in cancer cells. The cancer cells were cultured in folic acid-free medium (RPMI1640, ThermoFisher, GIBCO) for at least one week before the study. Cells were plated in opaque 96-well plates at a density of 3×10^3 cells per well (total of […]) and allowed to attach overnight. The following day, cells were treated with NDC (FA-CDC) prepared using the linker-payload conjugate precursor compound 202 (Example 33), at a concentration range of 0-50 nM (0, 0.001, 0.005, 0.01, 0.05, 0.1, 0.5, 1, 5, 10, 50 nM) by adding […] of 10x stock FA-CDC Solution.
(§2) Cells were treated for a pre-defined exposure time (depending on the study design, e.g., 4-6 hours, or 7 days). In the case of short-exposure-time viability study, cancer cells in each wells were washed with […] PBS and refreshed with […] of cell medium. After washing, the plates were returned back to 37° C. incubator for 7 days before the viability assay. In the case of 7-day-exposure-time viability study, no additional washing step was performed. After 7 days, the cell viability was assessed using the CellTiter-Glo2.0 assay (Promega) according to manufacturer's instructions. Data for both viability and proliferation were plotted using Prism7 software (GraphPad). Representative cell viability results of six FA-CDCs with similar surface density of Folic Acid targeting ligands and drug linkers is presented in provided in Table 4.

KB cell line = conditions: read-out: IC50 in KB cell line (++++); FA ligands per particle 12-22; linker-drug conjugates per particle 17-25
Procedure: as §1
as §2, with “(GraphPad).” for “(GraphPad). Representative cell viability results of six FA-CDCs with similar surface density of Folic Acid targeting ligands and drug linkers is presented in provided in Table 4.”

CC[C@@]1(O)C(=O)OCc2c1cc1n(c2=O)Cc2c-1nc1cc(F)c(C)c3c1c2[C@@H](NC(=O)OCc1ccc(NC(=O)[C@H](CCCCN)NC(=O)[C@H](Cc2ccccc2)NC(=O)CCOCCOCCOCCOCCOCCOCCOCCOCCOCCN=[N+]=[N-])cc1)CC3 (single isomer, unassigned) [Example 25]
% of Payload Release in 24 Hours Under Cleavage Conditions [1]: +++ (‘+++’ indicates 51-75% release)
IC50 (SKOV-3 cell line): 400 pM

CC[C@@]1(O)C(=O)OCc2c1cc1n(c2=O)Cc2c-1nc1cc(F)c(C)c3c1c2[C@@H](NC(=O)OCc1ccc(NC(=O)[C@H](CCCNC(N)=O)NC(=O)[C@@H](NC(=O)CCOCCOCCOCCOCCOCCOCCOCCOCCOCCN=[N+]=[N-])C(C)C)cc1)CC3 [Example 10, 4-((32S,35S)-1-azido-32-isopropyl-30,33-dioxo-35-(3-ureidopropyl)-3,6,9,12,15,18,21,24,27-nonaoxa-31,34-diazahexatriacontan-36-amido)benzyl-((1S,9S)-9-ethyl-5-fluoro-9-hydroxy-4-methyl-10,13-dioxo-2,3,9,10,13,15-hexahydro-1H,12H-benzo-[de]-pyrano-[3′,4′:6,7]-indolizino-[1,2-b]-quinolin-1-yl)-carbamate]
% of Payload Release in 24 Hours Under Cleavage Conditions [1]: +++ (‘+++’ indicates 51-75% release)
IC50 (SKOV-3 cell line): 10700 pM

CC[C@@]1(O)C(=O)OCc2c1cc1n(c2=O)Cc2c-1nc1cc(F)c(C)c3c1c2[C@@H](NC(=O)OCc1ccc(NC(=O)[C@H](CCCCN)NC(=O)[C@@H](NC(=O)CCOCCOCCOCCOCCOCCOCCOCCOCCOCCN=[N+]=[N-])C(C)C)cc1)CC3 [Example 33, 4-((32S,35S)-35-(4-aminobutyl)-1-azido-32-isopropyl-30,33-dioxo-3,6,9,12,15,18,21,24,27-nonaoxa-31,34-diazahexatriacontan-36-amido)benzyl ((1S,9S)-9-ethyl-5-fluoro-9-hydroxy-4-methyl-10,13-dioxo-2,3,9,10,13,15-hexahydro-1H,12H-benzo[de]pyrano[3′,4′:6,7]indolizino[1,2-b]quinolin-1-yl)carbamate]
% of Payload Release in 24 Hours Under Cleavage Conditions [1]: ++++ (‘++++’ indicates 76-100% release)
IC50 (KB cell line): 300 pM
IC50 (SKOV-3 cell line): 130 pM

CC[C@@]1(O)C(=O)OCc2c1cc1n(c2=O)Cc2c-1nc1cc(F)c(C)c3c1c2[C@@H](NC(=O)OCCSSCCNC(=O)CCOCCOCCOCCOCCOCCOCCOCCOCCOCCN=[N+]=[N-])CC3 [Example 57, 37-azido-8-oxo-11,14,17,20,23,26,29,32,35-nonaoxa-3,4-dithia-7-azaheptatriacontyl ((1S,9S)-9-ethyl-5-fluoro-9-hydroxy-4-methyl-10,13-dioxo-2,3,9,10,13,15-hexahydro-1H,12H-benzo[de]pyrano[3′,4′:6,7]indolizino[1,2-b]quinolin-1-yl)carbamate]
% of Payload Release in 24 Hours Under Cleavage Conditions [1]: +++ (‘+++’ indicates 51-75% release)
IC50 (KB cell line): 600 pM
IC50 (SKOV-3 cell line): 900 pM

CC[C@@]1(O)C(=O)OCc2c1cc1n(c2=O)Cc2c-1nc1cc(F)c(C)c3c1c2[C@@H](NC(=O)OCc1ccc(SSC(C)(C)CNC(=O)CCOCCOCCOCCOCCOCCOCCOCCOCCOCCN=[N+]=[N-])cc1)CC3 [Example 58, 4-((1-azido-33-methyl-30-oxo-3,6,9,12,15,18,21,24,27-nonaoxa-31-azatetratriacontan-33-yl)disulfanyl)benzyl ((1S,9S)-9-ethyl-5-fluoro-9-hydroxy-4-methyl-10,13-dioxo-2,3,9,10,13,15-hexahydro-1H,12H-benzo[de]pyrano[3′,4′:6,7]indolizino[1,2-b]quinolin-1-yl)carbamate]
% of Payload Release in 24 Hours Under Cleavage Conditions [1]: ++++ (‘++++’ indicates 76-100% release)
IC50 (KB cell line): 49400 pM

CCc1c2c(nc3ccc(OCC(=O)N/N=C(\C)c4cccc(OCCOCCOCCOCCOCCOCCN=[N+]=[N-])c4)cc13)-c1cc3c(c(=O)n1C2)COC(=O)[C@]3(O)CC [Example 70, (S,E)-N′-(1-(3-((17-azido-3,6,9,12,15-pentaoxaheptadecyl)oxy)phenyl)ethylidene)-2-((4,11-diethyl-4-hydroxy-3,14-dioxo-3,4,12,14-tetrahydro-1H-pyrano[3′,4′:6,7]indolizino[1,2-b]quinolin-9-yl)oxy)acetohydrazide]
IC50 (SKOV-3 cell line): 17900 pM
